We go through four compounds from publication PMC6272426, “LC-ESI-MS/MS Analysis and Pharmacokinetics of GP205, an Innovative Potent Macrocyclic Inhibitor of Hepatitis C Virus NS3/4A Protease in Rats” (Molecules, 2015).

The target of data set [1] is NS3 enzyme, genotype 1b HCV (HCV NS3/4A protease) (Hepatitis C virus genotype 1b, UniProt Q9WMX2). As to the kind of experiment: biochemical.
On the set-up of data set [2]: method as in PMID 24900304. Particulars: comparison value for MK-1220; cited from earlier work.
Details of data set [3]: method as in PMID 15732092. Particulars: rhesus monkeys; cited from earlier work.
Data set [4] is classed as physicochemical. The settings on record: Stock solution. Here is the method:
[table] Stock solutions of GP205 were prepared by dissolving an accurately weighed amount of reference standard in methanol to yield a final concentration of 1 mg/mL. The solutions were sonicated for 5 min to ensure complete dissolution. Then the solutions were allowed to equilibrate to room temperature and diluted to volume with methanol. Working standard solutions of GP205 in the concentration range of 20–50,000 ng/mL were prepared from individual aliquots of 1 mg/mL solution using methanol–water (95:5, v/v) as the diluent. The stock standard solution of IS was prepared by dissolving appropriate amount of paclitaxel in methanol at the concentration of 1 mg/mL. A 1 μg/mL IS working solution was obtained by diluting the stock solution of paclitaxel with methanol–water (95:5, v/v). All the solutions were stored at 4 °C and brought to room temperature before use. Calibration standards were prepared daily by spiking 5 μL of the appropriate standard solutions to 45 μL of the blank SD rat plasma. Plasma concentrations were 2, 5, 10, 50, 100, 200, 500, 2000 and 5000 ng/mL for GP205. QC samples, which were used in the validation and during the pharmacokinetics study, were prepared from different sources by independent dilution at three levels (5, 100, 4000 ng/mL) for GP205. QC samples were aliquoted into 1.5 mL non-sterile Eppendorf tubes and stored at −80 °C until analysis.

For data set [5] the following is noted: Sprague-Dawley, rat, in vivo, po.
Method: (§1) The method developed above was applied to a pharmacokinetic study of GP205 to SD rats after single oral doses at 2.5, 5 and 10 mg/kg and an intravenous injection dose at 1 mg/kg.
(§2) Twenty four SD rats (12 males and 12 females), weighing 210 ± 8 g (mean ± SD) were fed with certified standard diet and tap water ad libitum. Temperature and humidity were regulated at 21–23 °C and 30%–60%, respectively. A light/dark cycle of 12 h on/12 h off was established. After 1 week of acclimatization, they were randomly divided into 4 groups (3 males and 3 females for each group). After fasted overnight, three groups of them received oral administration of GP205 at three dosages 2.5 mg/kg, 5 mg/kg, 10 mg/kg dissolved in mixed solvent (5% DMSO, 40% PEG-400, 55% physiological saline), respectively. The other group of them received an intravenous injection of GP205 at 1 mg/kg. […] Blood samples (100 μL) were collected into heparinized tubes before administration and at 0.083, 0.17, 0.33, 0.5, 1, 2, 3, 4, 6, 8, 12, 24, 36, 48 h after oral administration or before administration and at 0, 0.083, 0.17, 0.33, 0.5, 1, 2, 3, 4, 6, 8, 12, 24, 36 , 48 h after intravenous administration. The plasma was separated from heparinized blood by centrifugation at 3500 rpm for 10 min and stored at −80 °C prior to analysis.
For data set [6] the following is noted: both, Sprague-Dawley, rat, in vivo, iv, 1 mg/kg.
Method: as §1, §2
For data set [7] the following is noted: Sprague-Dawley, rat.
The nature of data set [8]: in vivo. Particulars: Sprague-Dawley, rat.
Method: as §1, §2
A short description of data set [9]: in vivo. Particulars: both, Sprague-Dawley, rat, iv, 1 mg/kg.
Method: as §1, §2
Where [10] appears, read: 4 °C for 40 days, nominal 5 ng/mL.
Setting [11] is: 4 °C for 40 days, nominal 100 ng/mL.
Setting [12] is: 4 °C for 40 days, nominal 4000 ng/mL.
The mark [13] stands for this setting: 25 °C for 24 h, nominal 5 ng/mL.
The mark [14] stands for this setting: 25 °C for 24 h, nominal 100 ng/mL.
Setting [15] is: 25 °C for 24 h, nominal 4000 ng/mL.

Like-named read-outs stand apart in the source and are kept apart here.

Chain of NS3 enzyme, genotype 1b HCV (HCV NS3/4A protease) (Q9WMX2 1027-1657): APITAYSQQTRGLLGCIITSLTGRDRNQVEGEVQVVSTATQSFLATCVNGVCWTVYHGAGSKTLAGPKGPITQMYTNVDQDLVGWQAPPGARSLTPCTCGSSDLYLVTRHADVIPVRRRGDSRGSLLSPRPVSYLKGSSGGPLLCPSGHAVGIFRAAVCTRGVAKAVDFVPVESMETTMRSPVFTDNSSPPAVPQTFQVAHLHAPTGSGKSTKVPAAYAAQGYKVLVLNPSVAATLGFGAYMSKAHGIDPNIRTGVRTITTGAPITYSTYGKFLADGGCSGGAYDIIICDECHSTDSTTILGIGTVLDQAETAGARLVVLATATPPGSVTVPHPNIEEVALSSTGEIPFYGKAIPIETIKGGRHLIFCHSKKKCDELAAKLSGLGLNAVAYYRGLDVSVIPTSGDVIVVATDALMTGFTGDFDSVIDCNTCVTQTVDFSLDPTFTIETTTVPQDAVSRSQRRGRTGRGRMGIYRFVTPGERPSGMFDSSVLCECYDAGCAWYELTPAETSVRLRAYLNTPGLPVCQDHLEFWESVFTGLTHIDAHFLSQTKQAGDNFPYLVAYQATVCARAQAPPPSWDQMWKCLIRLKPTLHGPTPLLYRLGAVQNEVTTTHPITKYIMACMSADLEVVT
Chain of NS3 enzyme, genotype 1b HCV (HCV NS3/4A protease) (Q9WMX2 1658-1711): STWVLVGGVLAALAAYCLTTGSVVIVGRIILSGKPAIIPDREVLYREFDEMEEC

Broadly, the IC50 is the concentration that gives 50% inhibition. Take `CCC[C@H](NC(=O)[C@@H]1[C@H]2CCC[C@H]2CN1C(=O)[C@@H](NC(=O)[C@@H](NC(=O)c1cnccn1)C1CCCCC1)C(C)(C)C)C(=O)C(=O)NC1CC1` [telaprevir]: in [1], the IC50 was found to be 95 nM.

Consider `C=C[C@@H]1C[C@]1(NC(=O)[C@@H]1C[C@@H]2CN1C(=O)[C@H](C1CCCCC1)NC(=O)OCC(C)(C)CCCc1cc3c(nccc3cc1OC)O2)C(=O)NS(=O)(=O)C1CC1` [MK-1220], for which the half-maximal inhibitory concentration (IC50) in [1] (NS3 enzyme, genotype 1b HCV, in vitro, read-out: IC50) was found to be 11 nM. For the same compound, in [2], the t1/2 result was “about 6 h”.

As to `COc1ccc2c(O[C@@H]3C[C@H]4C(=O)N[C@]5(C(=O)O)C[C@H]5/C=C\CCCCC[C@H](NC(=O)OC5CCCC5)C(=O)N4C3)cc(-c3csc(NC(C)C)n3)nc2c1` [BILN-2061], the Cardiotoxicity finding result in [3] is “cardiotoxocity identified in rhesus monkeys”.

As usually defined, the bioavailability is dose-corrected exposure relative to a reference, in per cent. High values mean good availability, low ones poor availability. As usually defined, the AUC is the area under the concentration-time curve, a measure of exposure. High values mean high exposure, low ones low exposure. In general, AUC(0-inf) refers to the area under the concentration-time curve extrapolated to infinity. A higher AUC(0-inf) goes with more exposure. The Cmax is the peak of the concentration-time curve. In general, MRT refers to a mean duration of stay, worked out from the concentration-time curve. Broadly, the Tmax is the time from dosing to the highest level. What is called half-life is the time in which the quantity being followed falls by half. Broadly, the clearance is a measure of how efficiently the substance is removed, as volume per time. In data set [1], `C=C[C@@H]1C[C@]1(NC(=O)[C@@H]1C[C@@H]2CN1C(=O)[C@H](C1CCCCC1)NC(=O)[C@@H](NC(=O)OC(C)(C)C)COC/C=C/c1cc3c(nccc3cc1OC)O2)C(=O)NS(=O)(=O)C1CC1` [GP205, potassium tert-butyl N-[(3R,5S,8S,11S,15E)-8-cyclohexyl-5-{[(1R,2S)-1-[(cyclo-propanesulfonyl)carbamoyl]-2-ethenylcyclopropyl]carbamoyl}-18-methoxy-7,10-dioxo-2,13-dioxa-6,9,23-triazatetracyclo[15.6.2.13,6.020,24]hexacosa-1(23),15,17(25),18,20(24),21-hexaen-11-yl] carbamate monohydrate] gave an IC50 of 4 nM. For the same compound, the Accuracy in data set [4] (setting [10]) is 2.8%; in data set [4] (setting [11]) it was 0.6%; in data set [4] (setting [12]), −0.2%; in [4] (setting [13]) it was 1.8%; in [4] (setting [14]) it was 3.3%; in [4] (setting [15]), −0.3%. Moreover, the Accuracy in data set [7] (5 ng/mL) is reported as −5.5%; in data set [7] (100 ng/mL) it was −5.1%; in data set [7] (4000 ng/mL), −1.9%; in data set [7] (4 h, 5 ng/mL), −3.3%; in [7] (4 h, 100 ng/mL) it was −1.6%; in data set [7] (4 h, 4000 ng/mL), −2.9%. The Accuracy was −4.2% in data set [7] (24 h, 5 ng/mL); −3.9% in data set [7] (24 h, 100 ng/mL); −2.4% in data set [7] (24 h, 4000 ng/mL); −7.7% in [7] (40 days, 5 ng/mL); −7.2% in [7] (40 days, 100 ng/mL); −4.7% in data set [7] (40 days, 4000 ng/mL). Moreover, the “Measured Conc.” value in data set [4] (setting [10]) was found to be 5.14 ng/mL; in data set [4] (setting [11]), 100.63 ng/mL; in data set [4] (setting [12]) it was 3992.75 ng/mL; in data set [4] (setting [13]), 5.09 ng/mL; in data set [4] (setting [14]), 103.26 ng/mL; in data set [4] (setting [15]) it was 3987.91 ng/mL. Further, the “Measured Conc.” value in data set [7] (5 ng/mL) was determined as 4.73 ng/mL; in [7] (100 ng/mL), 94.90 ng/mL; in data set [7] (4000 ng/mL), 3925.86 ng/mL; in data set [7] (4 h, 5 ng/mL), 4.84 ng/mL; in [7] (4 h, 100 ng/mL), 98.39 ng/mL; in [7] (4 h, 4000 ng/mL), 3884.71 ng/mL. Besides, the “Measured Conc.” value in [7] (24 h, 5 ng/mL) was determined as 4.79 ng/mL; in [7] (24 h, 100 ng/mL), 96.13 ng/mL; in data set [7] (24 h, 4000 ng/mL) it was 3904.44 ng/mL; in data set [7] (40 days, 5 ng/mL), 4.61 ng/mL; in [7] (40 days, 100 ng/mL), 92.84 ng/mL; in data set [7] (40 days, 4000 ng/mL) it was 3812.43 ng/mL. Moreover, the “AUC relative to MK-1220 (fold higher)” value in [5] was around 11 fold. Besides, the “Cmax relative to MK-1220 (fold higher)” value in [5] is listed as “about 2 fold”. In data set [5] (both), the “Time of maximum plasma drug concentration” value was “about 6 h”. Also, the VD in data set [6] was found to be 0.31 ± 0.12 L. Also, the concentration at 1 h in “in vivo [8]” (po, 2.5 mg/kg) is 716 ng/mL. Moreover, the bioavailability in the data set “in vivo [8]” (both) is 34%. Further, the AUC in the data set “in vivo [8]” (both, po, 2.5 mg/kg) amounted to 64300 ng·h/mL; in the data set “in vivo [8]” (both, po, 5 mg/kg) it was 122000 ng·h/mL; in “in vivo [8]” (both, po, 10 mg/kg), 176000 ng·h/mL; in “in vivo [9]”, 66600 ng·h/mL. The total exposure AUC(0-inf) in the data set “in vivo [8]” (both, po, 2.5 mg/kg) was found to be 70100 ng·h/mL; in “in vivo [8]” (both, po, 5 mg/kg), 135000 ng·h/mL; in “in vivo [8]” (both, po, 10 mg/kg), 205000 ng·h/mL; in “in vivo [9]” it was 75200 ng·h/mL. The Cmax in “in vivo [8]” (both, po, 2.5 mg/kg) is 4260 ± 400 ng/mL; in the data set “in vivo [8]” (both, po, 5 mg/kg), 6780 ± 750 ng/mL; in “in vivo [8]” (both, po, 10 mg/kg) it was 9410 ± 583 ng/mL. The mean residence time (MRT) was found to be 19.4 ± 3.22 h in “in vivo [8]” (both, po, 2.5 mg/kg); 22.2 ± 2.18 h in “in vivo [8]” (both, po, 5 mg/kg); 25.6 ± 3.48 h in the data set “in vivo [8]” (both, po, 10 mg/kg); 20.8 ± 3.41 h in “in vivo [9]”. For the same compound, the Tmax in the data set “in vivo [8]” (both, po, 2.5 mg/kg) is 6.3 ± 0.8 h; in the data set “in vivo [8]” (both, po, 5 mg/kg), 6.3 ± 1.5 h; in the data set “in vivo [8]” (both, po, 10 mg/kg), 6.3 ± 0.8 h. The half-life is 12.4 ± 1.51 h in the data set “in vivo [8]” (both, po, 2.5 mg/kg, t1/2); 13.9 ± 1.48 h in “in vivo [8]” (both, po, 5 mg/kg, t1/2); 12.4 to 17.2 h in the data set “in vivo [8]” (both, po, 10 mg/kg, Elimination half time (t1/2)); 17.2 ± 2.73 h in the data set “in vivo [8]” (both, po, 10 mg/kg, t1/2); 16.3 ± 2.99 h in “in vivo [9]”. In “in vivo [9]”, this compound had a C0 of 9510 ± 442 ng/mL. The compound further had a clearance in the data set “in vivo [9]” of 0.333 mL/min/kg.
